According to patent US20230285282A1, “OCULAR IMPLANT CONTAINING AN ACTIVE INGREDIENT” (OCULAR THERAPEUTIX, INC., priority 2020, published 2023):
Values after ≈ are worked out from the molar mass of the structure shown. Where two headings read alike, the source gives them in different places. Values belong to the compound of their own block, whether it stands above or below them.

Assays:
[1] = test system: CYP3A4/5; conditions: cited from earlier work
[2] = cited from earlier work
[3] = physchem; conditions: PBS, 37 °C, pH 7.2, aqueous buffer
[4] = test system: vascular leakage; assay: VEGF challenge, vascular leakage scored by fluorescein angiography; assay type: in vivo, Dutch belted rabbits
Protocol: For efficacy studies, 12 animals (with and without the implant) received an […] VEGF challenge (1 μg) 48 hours prior to selected time points (1, 2, 3, and 6 months after implant injection; 3 animals euthanized at each time point) to induce vascular proliferation and leakage. Rabbits were followed for 6 months from the administration of the implant. Eyes were imaged 48 hours post VEGF challenge using fluorescein angiography (FA) after intravenous injection of fluorescein and were graded on a scale from 0 to 4 (Table 9). Each eye was scored on the left and right side to account for non-uniformity in inflammatory response. FA scores were then averaged for each eye.
Animals from each group were […] challenged with VEGF (1 μg) 48 hours prior to selected time points (0.5, 1, 3, 6, 9, 12, 14, 16, 19, 20, and 21 months) to induce vascular proliferation and leakage. Eyes were imaged 48 hours post VEGF challenge time-points using fluorescein angiography (FA) and were graded on a scale from 0 (normal) to 4 (severe leakage) as described under Example 3.2.

[5] = 1.25 mg intravitreal, rabbits; cited from earlier work

solubility [3]: 0.4 to 0.5 µg/mL (≈ 1.03 to 1.29 µM)
Compound: CNC(=O)c1ccccc1Sc1ccc2c(/C=C/c3ccccn3)n[nH]c2c1 [axitinib, N-methyl-2-[3-((E)-2-pyridin-2-yl-vinyl)-1H-indazol-6-ylsulfanyl]-benzamide]
axitinib exposure (Cmax) ([1]; co-administration with oral ketoconazole): increased
axitinib exposure (Cmax) ([1]; co-administration with rifamycin): decreased
clearance half-life (t1/2) ([2]; Rugo et al. 2005): a few hours

Compound: Avastin®: anti-VEGF therapeutic
duration of effect post injection ([4]; 1.25 mg Avastin only): ≤ 3 months
vascular leakage after VEGF challenge ([4]; 1.25 mg Avastin only (group 3)): after 3 months vascular leakage re-occurred
half-life [5]: 158 h

Compound: aflibercept: anti-VEGF agent
t1/2 in the human eye [2]: several days

Compound: ranibizumab: anti-VEGF agent
t1/2 in the human eye [2]: several days
